Measured values from patent publication US10940188B2, “Compounds and methods for treatment and prevention of Flavivirus infection” (priority 2016, dated 2021).
Values joined by “and” are separate entries in the source; they are usually repeats but may differ in a detail not shown here. Equal entries are not always repeated. Where two headings read alike, the source gives them in different places.

Test system: ZIKV-induced caspase 3/7 activity in hNPCs
Test: Caspase 3/7 activity assay, ZIKV-infected hNPCs
Type: cell-based
Conditions: for IC50: read-out: Caspase 3 (IC50, uM) NPCs; for Emax: read-out: Caspase 3 (efficacy, %) NPCs
Method in brief: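 Human NPCs, SNB-19 cells or astrocytes seeded 16 h, compound added 30 min before ZIKV, then 6 h infection at 37 °C. Caspase-Glo 3/7 luminescence after 30 min at room temperature, normalized to uninfected cells (0%) and ZIKV-infected cells (100%).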

[1] = Homo sapiens, ZIKV-infected hNPCs

Row | Compound | IC50 [1] | Emax [1] | also measured
1 | Cc1cccc(C#Cc2ccccc2)n1 [MPEP, 2-Methyl-6-(phenylethynyl)pyridine] | 4.11 µM | 96.1% | –
2 | O=C1c2ccccc2C(=O)c2c1ccc(O)c2O [Alizarin] | 21.8 µM | 58.5% | –
3 | COc1cccc(-c2ccc(NC(=O)C3=C(C(=O)O)CCC3)c(F)c2)c1 [Vidofludimus] | 2.45 µM | 87.8% | –
4 | O=S(=O)(O)c1ccc2[nH]c(-c3ccccc3)nc2c1 [Ensulizole] | – | – | IC50 (Homo sapiens): 1.38 µM; Emax (Homo sapiens): 80.6%
5 | Cc1cccc(/C=C/c2ccccc2)n1 [SIB 1893] | – | – | Caspase 3 (efficacy, %) NPCs (ZIKV-infected hNPCs): 95.2%; IC50 (ZIKV-infected hNPCs): 8.69 µM
6 | C/C1=C2/[N-][C@H]([C@H](CC(N)=O)[C@@]2(C)CCC(=O)NC[C@@H](C)OP(=O)([O-])O[C@H]2[C@@H](O)[C@@H](n3cnc4cc(C)c(C)cc43)O[C@@H]2CO)[C@]2(C)N=C(/C(C)=C3N=C(/C=C4N=C1[C@@H](CCC(N)=O)C\4(C)C)[C@@H](CCC(N)=O)[C@]\3(C)CC(N)=O)[C@@H](CCC(N)=O)[C@]2(C)CC(N)=O.[Co+3].[OH-] [Hydroxocobalamin] | – | – | Caspase 3 (efficacy, %) NPCs (ZIKV-infected hNPCs): 67.4%; IC50 (ZIKV-infected hNPCs): 0.87 µM
7 | O=C(Nc1ccc([N+](=O)[O-])cc1Cl)c1cc(Cl)ccc1O [Niclosamide] | 1.84 µM | 87.5% | –
8 | Flurbiprofen axetil | – | – | Caspase 3 (efficacy, %) NPCs (ZIKV-infected hNPCs): 0.0%
9 | C[C@H](NC(=O)C(=O)Nc1ccccc1C(C)(C)C)C(=O)N[C@@H](CC(=O)O)C(=O)COc1c(F)c(F)cc(F)c1F [Emricasan] | 0.37 µM | 85.3% | –
10 | Nc1nc2ccc([N+](=O)[O-])cc2s1 [2-Amino-6-nitrobenzothiazole] | 56.2 µM | 57.1% | –
11 | O=C(O)c1ccccc1Nc1cccc(C(F)(F)F)c1 [Flufenamic acid] | 17.3 µM | 68.1% | –
12 | O=C(O)CCC(=O)c1ccc(-c2ccccc2)cc1 [Fenbufen] | 19.5 µM | 72.5% | –
13 | Cc1cc(O)c2c(c1)C(=O)c1cc(O)cc(O)c1C2=O [Emodin] | 2.59 µM | 82.1% | –
14 | O=C1NC(=O)/C(=C/c2ccc(-c3ccc(F)cc3O)o2)S1 [AS-252424] | – | – | Caspase 3 (efficacy, %) NPCs (ZIKV-infected hNPCs): 52.3%; IC50 (ZIKV-infected hNPCs): 1.64 µM
15 | O=C(O)c1ccccc1NCCc1ccccc1 [Enfenamic acid] | 21.8 µM | 47.1% | –
16 | O=C1NC(=O)C(=Cc2ccc(-c3ccc(F)cc3)o2)S1 [CAY10505] | – | – | Caspase 3 (efficacy, %) NPCs (ZIKV-infected hNPCs): 83.5%; IC50 (ZIKV-infected hNPCs): 10.9 µM
17 | Vitamin B12 | – | – | Caspase 3 (efficacy, %) NPCs (ZIKV-infected hNPCs): 94.7% and 59.1%; IC50 (ZIKV-infected hNPCs): 6.9 µM and 11.3 µM
18 | CN(C)CCCSc1ccccc1NC(=O)/C=C/c1ccccc1 [Cinanserin] | 17.3 µM | 80.4% | –

Row | Compound | IC50 [1] | Emax [1] | also measured
19 | CC(C(=O)O)c1ccc(C(=O)c2ccccc2)s1 (stereo not shown) [Tiaprofenic acid] | 8.69 µM | 86.7% | –
20 | CCOCCOC(=O)C=Cc1ccc(OC)cc1 [2-Ethoxylethyl-p-methoxycinnamate] | 18.4 µM | 56% | –
21 | CC(=O)Oc1cccc2c1C(=O)c1c(OC(C)=O)cc(C(=O)O)cc1C2=O [Diacerein] | 15.5 µM | 56.5% | –
22 | O=C(O)c1cc([N+](=O)[O-])ccc1NCCCc1ccccc1 [5-Nitro-2-(3-phenylpropylamino)benzoic acid] | 8.69 µM | 59.8% | –
23 | c1ccc(CCNc2nc(-c3ccccc3)cs2)cc1 [Fanetizole] | 14.6 µM | 81.8% | –
24 | COc1ccc(-c2cc(=S)ss2)cc1 [Anethole trithione] | 13 µM | 70.3% | –
25 | O=C(OCc1ccccc1)c1ccc(O)cc1 [Benzylparaben] | 15.5 µM | 56% | –
26 | CC(C(=O)O)c1ccc(C(=O)c2cccs2)cc1 (stereo not shown) [Suprofen] | 15.5 µM | 59.1% | –
27 | CN1CC(=O)NC1=NC(=O)Nc1cccc(Cl)c1 [Fenobam] | – | – | Caspase 3 (efficacy, %) NPCs (ZIKV-infected hNPCs): 108%; IC50 (ZIKV-infected hNPCs): 5.48 µM
28 | Cc1ccc(O)c(-n2nc3ccccc3n2)c1 [2-(2H-Benzotriazol-2-yl)-4-methylphenol] | 4.89 µM | 77.6% | –
29 | CCC(C(=O)O)c1ccc(N2Cc3ccccc3C2=O)cc1 (stereo not shown) [Indobufen] | 6.15 µM | 81.3% | –
30 | N#CC1(c2ccc(NC(=O)c3cccnc3NCc3ccncc3)cc2)CCCC1 [Apatinib] | – | 0% | –
31 | O=C(Oc1ccccc1)c1cccc(C(=O)Oc2ccccc2)c1 [Diphenyl isophthalate] | 4.47 µM | 89.4% | –
32 | CC(=O)Nc1ccc([C@H](C)C(=O)Nc2ncc(C(C)C)s2)cc1 [PHA-690509] | – | – | Caspase 3 (efficacy, %) NPCs (ZIKV-infected hNPCs): 73.0%; IC50 (ZIKV-infected hNPCs): 19.5 µM
33 | O=C(Nc1ccc(C(=O)O)c(O)c1)c1ccccc1 [Benzoylpas] | 4.89 µM | 85.4% | –
34 | c1ccc2[nH]c(-c3cscn3)nc2c1 [Thiabendazole] | 9.75 µM | 83.4% | –
35 | O=C(c1ccccc1)c1ccc2n1CCC2C(=O)O (stereo not shown) [Ketorolac tromethamine] | 10.3 µM | 75% | –
36 | CN1CCN(c2cc3c(nn2)Oc2ccccc2N3C)CC1 [Pipofezine] | 12 µM | 47.7% | –
